For 1 cell line, relative viability results are on record in the supplement of paper PMC10307832.

Common to all, as to assay: relative viability (nuclei count vs DMSO), 5 days (fraction); higher = more cells survive
Compound in the assay “Kobe2602 + Trametinib”: C1=CC(=CC=C1NC(=S)NNC2=C(C=C(C=C2[N+](=O)[O-])C(F)(F)F)[N+](=O)[O-])F [Kobe2602] + CC(=O)Nc1cccc(-n2c(=O)n(C3CC3)c(=O)c3c(Nc4ccc(I)cc4F)n(C)c(=O)c(C)c32)c1 [Trametinib] (partner 0.02 µM)
An outline of the steps:
(§1)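 One day after seeding in 1536-well plates, lung cancer cell lines were dosed by pin tool. Dosing was either single-drug or a fixed anchor-drug dose plus five library-drug doses (not always all listed) in √10 steps. After 5 days, nuclei were stained in one fix-and-stain step and counted on 4× images, and relative viability is the nuclei count of treated wells over that of vehicle wells, given as the median of duplicate plates.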

Compound in assay [1]: COc1cc2nccc(Oc3ccc(NC(=O)C4(C(=O)Nc5ccc(F)cc5)CC4)cc3)c2cc1OC [Cabozantinib] + CCNC(=O)c1noc(-c2cc(C(C)C)c(O)cc2O)c1-c1ccc(CN2CCOCC2)cc1 [Luminespib] (partner 0.01 µM)
An outline of the steps: as §1

Compound in the assay “Zosuquidar + Trametinib”: O[C@@H](COc1cccc2ncccc12)CN1CCN([C@@H]2c3ccccc3[C@@H]3[C@H](c4ccccc42)C3(F)F)CC1 [Zosuquidar] + CC(=O)Nc1cccc(-n2c(=O)n(C3CC3)c(=O)c3c(Nc4ccc(I)cc4F)n(C)c(=O)c(C)c32)c1 [Trametinib] (partner 0.02 µM)
In a few lines:
as §1

Compound in the assay “Zosuquidar + Alpelisib”: O[C@@H](COc1cccc2ncccc12)CN1CCN([C@@H]2c3ccccc3[C@@H]3[C@H](c4ccccc42)C3(F)F)CC1 [Zosuquidar] + Cc1nc(NC(=O)N2CCC[C@H]2C(N)=O)sc1-c1ccnc(C(C)(C)C(F)(F)F)c1 [Alpelisib] (partner 2 µM)
An outline of the steps:
as §1

For UMC-11, the relative viability with Kobe2602 + Trametinib (first compound 0.2 µM) amounted to 0.716; in the assay with Kobe2602 + Trametinib (first compound 0.6325 µM), 0.683; with Kobe2602 + Trametinib (first compound 2 µM) it was 0.751; with Kobe2602 + Trametinib (first compound 6.325 µM), 0.747; with Kobe2602 + Trametinib (first compound 20 µM), 0.668; in assay [1] (first compound 0.02 µM), 0.941. The relative viability in assay [1] (first compound 0.06325 µM) turned out to be 1.09; in assay [1] (first compound 0.2 µM), 1.1; in assay [1] (first compound 0.6325 µM), 1.09; in assay [1] (first compound 2 µM) it was 1.09; with Zosuquidar + Trametinib (first compound 0.01 µM), 0.668; in the assay with Zosuquidar + Trametinib (first compound 0.03162 µM) it was 0.758. Moreover, the relative viability with Zosuquidar + Trametinib (first compound 0.1 µM) amounted to 0.623; with Zosuquidar + Trametinib (first compound 0.3162 µM), 0.833; in the assay with Zosuquidar + Trametinib (first compound 1 µM), 0.606; in the assay with Zosuquidar + Alpelisib (first compound 0.01 µM), 0.877; with Zosuquidar + Alpelisib (first compound 0.03162 µM) it was 1.03; in the assay with Zosuquidar + Alpelisib (first compound 0.1 µM), 0.973. For the same cell line, the relative viability in the assay with Zosuquidar + Alpelisib (first compound 0.3162 µM) is 1.02; in the assay with Zosuquidar + Alpelisib (first compound 1 µM) it was 0.961.
